Assay results published in patent publication EP0130882A2, “Bicyclo(3.2.1)octane carboxylic-acid derivatives, processes for their preparation and their therapeutical use” (SANOFI, priority 1983, dated 1985).
Where two headings read alike, the source gives them in different places.

Tests used:
[1] = test system: Crise électrique supramaximale; assay: Supramaximal electroshock seizure test; assay type: in vivo, souris; details: po, 0.5 h; per os, 30 min before supramaximal electroshock (50 HZ, 60 volts, 0,4 sec.), mouse; read-out: DE 50 (hyperextension tonique)
Excerpt: (§1) L'invention a donc encore pour objet un médicament ayant en particulier des activités anticonvulsivante et antianoxique caractérisé en ce qu'il contient, à titre de principe actif un dérivé de formule I. Tous les essais Toxico-pharmacologiques ont été pratiqués sur des souris mâles de souche CHARLES RIVER (CD1).
Cette expérimentation a été effectuée selon le test de Swinyard et al., (Am.J.Pharmacol, Ther., 1952,168-175). Les traitements ont été administrés per os à des lots de 10 souris 30 mn, avant l'électrochoc supramaximal (courant alternatif de 50 HZ, 60 volts pendant 0,4 sec.) délivré par l'intermédiaire d'électrodes intra-auriculaires. On note le nombre d'animaux dans chaque lot qui ne présentent pas d'hy- perextension tonique lors de la stimulation électrique trans- cranienne, et on détermine la DE 50 exprimée en mg/Kg.

[2] = test system: Crise à l'acide B - mercaptopropionique; assay: B-mercaptopropionic acid seizure test; assay type: in vivo, souris; details: oral, 15 min before acide B-mercaptopropionique 60 mg/Kg I.P., mouse; read-out: DE 50 (the source's name)
Excerpt: as §1
L'acide B-mercaptopropionique est un inhibiteur de la glutamate-décarboxylase (GAD), enzyme qui catalyse la transformation du glutamate en acide Y-aminobutyrique (GABA). Son action se traduit donc par un abaissemement du taux de ŒBA et la survenue de crises généralisées tonico-cloniques 3 à 4 minutes après son administration. L'acide B-mercaptopropionique a été administré aux souris par voie I.P. à la dose de 60 mg/Kg. Le traitement pour les composés à tester est administré par la voie orale 15 minutes avant l'injection d'acide B-mercaptopionique. Les DE 50 exprimées en mg/Kg, ainsi déterminées sont : • Composé N° 2 = 90 • 5 = 30 • 6 = 60 • 7 = 120 • 8 = 70

[3] = test system: anoxie par confinement; assay: Anoxia by confinement (antianoxic activity, survival time); assay type: in vivo, souris; details: I.P. immediately before placing in closed 200 ml vessel, mouse; dose not given
Excerpt: as §1
Cette activité a été étudiée par la méthode de l'anoxie par confinement.
Des souris (20 par lot) sont placées dans une enceinte (bocal en verre) normobare, normoxique, hermétiquement close de 200 ml. Tous les traitements sont administrés par voie I.P. immédiatement avant l'introduction dans l'enceinte. L'animal est considéré comme mort au moment de l'arrêt respiratoire.
Les bocaux choisis étant très petits, l'activité motrice des animaux est extrêmement faible, ce qui élimine en principe la possibilité d'un résultat positif par effet sédatif. On note dans chaque lot le temps de survie des animaux.

[4] = test system: Crise pentétrazolique; assay: Pentetrazole seizure test (protection against tonic seizures); assay type: in vivo, souris; details: read-out: DE 50 (protection contre les crises toniques)
Excerpt: On note dans chaque lot le pourcentage de protection contre les crises toniques.

[5] = in vivo; parameters: species or system souris; details: mouse, po
Excerpt: as §1
Dans le cadre de cette étude, on a déterminé l'activité sédative des composés de l'invention; on a utilisé dans ce but, le test du cylindre tournant (Boissier, J.R., Therapie 1958, 13,1074).
Ce test est destiné à apprécier l'aptitude des animaux à coordonner leurs mouvements. Il met en oeuvre un cylindre de bois, d'un diamètre de 4,8 cm, qui-tourne à la vitesse de 4 tours/mn. Le test est pratiqué sur des souris d'un poids 22 g environ. Les produits sont administrés par voie orale à différents lots de 10 animaux. Ces derniers sont placés sur l'appareil 15 minutes après l'administration du produit. On note le pourcentage de souris qui perdent le réflexe d'équilibration, c'est-à-dire qui deviennent incapables de se maintenir sur le cycindre pendant une durée de 2 minutes.
Par la méthode de Finney, on calcule une dose neuroto- xique 50 (DNT 50) qui exprime donc le niveau moyen -des premières atteintes neuromusculaires sous l'influence d'un produit étudié.

[6] = test system: Crise à la bicuculline; assay: Bicuculline seizure test; assay type: in vivo, souris; details: oral, 30 min before bicuculline 0.65 mg/Kg i.v., observed for 30 min, mouse; read-out: DE 50 (convulsions toniques)
Excerpt: as §1
Ce test a été effectué selon la méthode de Pérez de la Mora et Tapia (Biochem. Pharmacol., 1973,19,303-310). Les traitements ont été administrés par voie orale à des lots de 10 souris, 30 minutes avant l'injection de bicuculline (0.65 mg/Kg) par la voie intraveineuse. L'apparition des convulsions toniques a été notée pendant les 30 mn qui ont suivi l'injection de bicuculline. Les DE 50 en mg/Kg ainsi déterminées sont : • Composé N° 5 = 68 • 6 = 61 • 7 = 145 • 8 = 75

[7] = Acute oral toxicity (DL 50, Finney method); parameters: species or system souris; details: in vivo, mouse
Protocol: as §1
Ainsi, la DL 50 déterminée par voie orale chez la souris par la méthode Finney(Probit analysis, University Press Cambridge.,. 1971) est de 3000 mg/Kg pour le dérivé N° 5'et supérieure à 1000 mg/Kg pour tous les composés de l'invention.

[8] = oral, 15 min before pentétrazole 125 mg/Kg i.p., mouse

Structure (SMILES)	ED50 [1]	ED50 [2]	temps de survie augmenté [3]	ED50 [4, 8]	TD50 at 0.25 h [5]	ED50 [6]	LD50 [7]	ED50 ([4]; Mus musculus, po)
CC1(C(=O)O)CC2CCC(C2)C1 (stereo not shown) [dérivé N° 2, Méthyl-3 bicyclo (3.2.1.) octane carboxylate -3 de sodium]	400 mg/kg	90 mg/kg	15 p 100	90 mg/kg	600 mg/kg			
CC1(C(N)=O)CC2CCC(C2)C1 (stereo not shown) [dérivé N° 5, Méthyl-3 bicyclo (3.2.1.) octane carboxamide-3]	210 mg/kg	30 mg/kg	25 p 100	53 mg/kg	365 mg/kg	68 mg/kg	3000 mg/kg	
CCC1(C(N)=O)CC2CCC(C2)C1 (stereo not shown) [dérivé N° 6, Ethyl-3 bicyclo (3.2.1.) octane carboxamide-3]	210 mg/kg	60 mg/kg		75 mg/kg	400 mg/kg	61 mg/kg		
CC(C)C1(C(N)=O)CC2CCC(C2)C1 (stereo not shown) [dérivé N° 7, Isopropyl-3 bicyclo (3.2.1.) octane carboxamide -3]	260 mg/kg	120 mg/kg		120 mg/kg	230 mg/kg	145 mg/kg		
CNC(=O)C1(C)CC2CCC(C2)C1 (stereo not shown) [dérivé N° 8, N-Méthyl mêthyl-3 bicyclo (3.2.1.) octane carboxamide-3]	310 mg/kg	70 mg/kg		115 mg/kg	500 mg/kg	75 mg/kg		
CCCC(CCC)C(=O)O [valproate de sodium, reference compound]								200 mg/kg
